Results taken from PubChem BioAssay (NCI).
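The concentration for 50% growth inhibition is given as GI50. At the TGI there is no net growth.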

Assays:
Assay in all cases: growth of human tumour cells (NCI), 384-well format
786-0 renal = system: 786-0 renal
A498 renal = system: A498 renal
A549 NSCLC = system: A549 NSCLC
ACHN renal = system: ACHN renal
BT-549 breast = system: BT-549 breast
CAKI-1 renal = system: CAKI-1 renal
CCRF-CEM leukemia = system: CCRF-CEM leukemia
COLO 205 colon = system: COLO 205 colon
DU-145 prostate = system: DU-145 prostate
EKVX NSCLC = system: EKVX NSCLC
HCC-2998 colon = system: HCC-2998 colon
HCT-15 colon = system: HCT-15 colon
HL-60(TB) leukemia = system: HL-60(TB) leukemia
HOP-62 NSCLC = system: HOP-62 NSCLC
HOP-92 NSCLC = system: HOP-92 NSCLC
HS 578T breast = system: HS 578T breast
HT29 colon = system: HT29 colon
IGROV1 ovarian = system: IGROV1 ovarian
KM12 colon = system: KM12 colon
M14 melanoma = system: M14 melanoma
MALME-3M melanoma = system: MALME-3M melanoma
MCF7 breast = system: MCF7 breast
MDA-MB-231 breast = system: MDA-MB-231 breast
MDA-MB-435 melanoma = system: MDA-MB-435 melanoma
MDA-MB-468 breast = system: MDA-MB-468 breast
MOLT-4 leukemia = system: MOLT-4 leukemia
NCI-H226 lung = system: NCI-H226 lung
NCI-H23 lung = system: NCI-H23 lung
NCI-H322M lung = system: NCI-H322M lung
NCI-H460 NSCLC = system: NCI-H460 NSCLC
NCI-H522 lung = system: NCI-H522 lung
NCI/ADR-RES ovarian = system: NCI/ADR-RES ovarian
OVCAR-3 ovarian = system: OVCAR-3 ovarian
OVCAR-4 ovarian = system: OVCAR-4 ovarian
OVCAR-5 ovarian = system: OVCAR-5 ovarian
OVCAR-8 ovarian = system: OVCAR-8 ovarian
PC-3 prostate = system: PC-3 prostate
RPMI-8226 leukemia = system: RPMI-8226 leukemia
RXF 393 renal = system: RXF 393 renal
SF-268 CNS = system: SF-268 CNS
SF-295 CNS = system: SF-295 CNS
SF-539 CNS = system: SF-539 CNS
SK-MEL-2 melanoma = system: SK-MEL-2 melanoma
SK-MEL-28 melanoma = system: SK-MEL-28 melanoma
SK-MEL-5 melanoma = system: SK-MEL-5 melanoma
SK-OV-3 ovarian = system: SK-OV-3 ovarian
SN12C renal = system: SN12C renal
SNB-19 CNS = system: SNB-19 CNS
SNB-75 CNS = system: SNB-75 CNS
SR leukemia = system: SR leukemia
SW-620 colon = system: SW-620 colon
T-47D breast = system: T-47D breast
TK-10 renal = system: TK-10 renal
U251 glioblastoma = system: U251 glioblastoma
UACC-257 melanoma = system: UACC-257 melanoma
UACC-62 melanoma = system: UACC-62 melanoma

In the case of `CC(C)(C)c1ccc(Oc2ccc(N)cn2)cc1`, the GI50 (786-0 renal) is reported as 24.7 µM, the TGI (786-0 renal) is reported as > 100 µM and the GI50 (A498 renal) is reported as 46.5 µM. The TGI (A498 renal) was > 100 µM, the GI50 (A549 NSCLC) was 20.4 µM and the TGI (A549 NSCLC) was > 100 µM. The GI50 (ACHN renal) was > 100 µM, the TGI (ACHN renal) was > 100 µM and the GI50 (BT-549 breast) was 12.6 µM. For the same compound, the TGI (BT-549 breast) was 65 µM, the GI50 (CAKI-1 renal) was 24.1 µM and the TGI (CAKI-1 renal) was > 100 µM. It also gave a GI50 (CCRF-CEM leukemia) of 0.302 µM, a TGI (CCRF-CEM leukemia) of 1.24 µM and a GI50 (COLO 205 colon) of 38.6 µM. The TGI (COLO 205 colon) was 86.6 µM, the GI50 (DU-145 prostate) was 64.3 µM and the TGI (DU-145 prostate) was > 100 µM. The GI50 (EKVX NSCLC) was 44.2 µM, the TGI (EKVX NSCLC) was > 100 µM and the GI50 (HCC-2998 colon) was 17 µM. The TGI (HCC-2998 colon) was 48.6 µM, the GI50 (HCT-15 colon) was 29.4 µM and the TGI (HCT-15 colon) was > 100 µM. The GI50 (HL-60(TB) leukemia) was 0.479 µM, the TGI (HL-60(TB) leukemia) was 2.82 µM and the GI50 (HOP-62 NSCLC) was 33 µM. The TGI (HOP-62 NSCLC) was > 100 µM, the GI50 (HOP-92 NSCLC) was 34.8 µM and the TGI (HOP-92 NSCLC) was > 100 µM. The GI50 (HS 578T breast) was 29.5 µM, the TGI (HS 578T breast) was > 100 µM and the GI50 (HT29 colon) was 24.9 µM. For the same compound, the TGI (HT29 colon) was 57.7 µM, the GI50 (IGROV1 ovarian) was 97.3 µM and the TGI (IGROV1 ovarian) was > 100 µM. For the same compound, the GI50 (KM12 colon) was 44.3 µM, the TGI (KM12 colon) was > 100 µM and the GI50 (M14 melanoma) was > 100 µM. The TGI (M14 melanoma) was > 100 µM, the GI50 (MALME-3M melanoma) was 26.9 µM and the TGI (MALME-3M melanoma) was 72.9 µM. For the same compound, the GI50 (MCF7 breast) was 74.2 µM, the TGI (MCF7 breast) was > 100 µM and the GI50 (MDA-MB-231 breast) was 28.4 µM. The TGI (MDA-MB-231 breast) was > 100 µM, the GI50 (MDA-MB-435 melanoma) was 92.2 µM and the TGI (MDA-MB-435 melanoma) was > 100 µM. For the same compound, the GI50 (MDA-MB-468 breast) was 21 µM, the TGI (MDA-MB-468 breast) was 57 µM and the GI50 (MOLT-4 leukemia) was 4.83 µM. It also gave a TGI (MOLT-4 leukemia) of 19.3 µM, a GI50 (NCI-H226 lung) of 10.8 µM and a TGI (NCI-H226 lung) of 52.3 µM. It also gave a GI50 (NCI-H23 lung) of 29.1 µM, a TGI (NCI-H23 lung) of 85.8 µM and a GI50 (NCI-H322M lung) of 68.2 µM. For the same compound, the TGI (NCI-H322M lung) was > 100 µM, the GI50 (NCI-H460 NSCLC) was 32.7 µM and the TGI (NCI-H460 NSCLC) was > 100 µM. For the same compound, the GI50 (NCI-H522 lung) was 14.7 µM, the TGI (NCI-H522 lung) was 39.9 µM and the GI50 (NCI/ADR-RES ovarian) was 36.4 µM. The TGI (NCI/ADR-RES ovarian) was > 100 µM, the GI50 (OVCAR-3 ovarian) was 24.9 µM and the TGI (OVCAR-3 ovarian) was > 100 µM. For the same compound, the GI50 (OVCAR-4 ovarian) was 28.1 µM, the TGI (OVCAR-4 ovarian) was > 100 µM and the GI50 (OVCAR-5 ovarian) was > 100 µM. For the same compound, the TGI (OVCAR-5 ovarian) was > 100 µM, the GI50 (OVCAR-8 ovarian) was 52.1 µM and the TGI (OVCAR-8 ovarian) was > 100 µM. The GI50 (PC-3 prostate) was 43.5 µM, the TGI (PC-3 prostate) was > 100 µM and the GI50 (RPMI-8226 leukemia) was 0.231 µM. It also gave a TGI (RPMI-8226 leukemia) of 0.563 µM, a GI50 (RXF 393 renal) of 21.8 µM and a TGI (RXF 393 renal) of 66.2 µM. For the same compound, the GI50 (SF-268 CNS) was 26 µM, the TGI (SF-268 CNS) was > 100 µM and the GI50 (SF-295 CNS) was > 100 µM. For the same compound, the TGI (SF-295 CNS) was > 100 µM, the GI50 (SF-539 CNS) was 43.4 µM and the TGI (SF-539 CNS) was > 100 µM. For the same compound, the GI50 (SK-MEL-2 melanoma) was > 100 µM, the TGI (SK-MEL-2 melanoma) was > 100 µM and the GI50 (SK-MEL-28 melanoma) was > 100 µM. The TGI (SK-MEL-28 melanoma) was > 100 µM, the GI50 (SK-MEL-5 melanoma) was 22.3 µM and the TGI (SK-MEL-5 melanoma) was 51.8 µM. The GI50 (SK-OV-3 ovarian) was > 100 µM, the TGI (SK-OV-3 ovarian) was > 100 µM and the GI50 (SN12C renal) was 57.7 µM. For the same compound, the TGI (SN12C renal) was > 100 µM, the GI50 (SNB-19 CNS) was > 100 µM and the TGI (SNB-19 CNS) was > 100 µM. The GI50 (SNB-75 CNS) was 22.1 µM, the TGI (SNB-75 CNS) was > 100 µM and the GI50 (SR leukemia) was 14.3 µM. The TGI (SR leukemia) was 32.8 µM, the GI50 (SW-620 colon) was 85.7 µM and the TGI (SW-620 colon) was > 100 µM. For the same compound, the GI50 (T-47D breast) was 31.2 µM, the TGI (T-47D breast) was > 100 µM and the GI50 (TK-10 renal) was 93 µM. The TGI (TK-10 renal) was > 100 µM, the GI50 (U251 glioblastoma) was 35.8 µM and the TGI (U251 glioblastoma) was > 100 µM. For the same compound, the GI50 (UACC-257 melanoma) was 36 µM, the TGI (UACC-257 melanoma) was > 100 µM and the GI50 (UACC-62 melanoma) was > 100 µM. For the same compound, the TGI (UACC-62 melanoma) was > 100 µM.
